Data: patent publication US9326968B2, “Composition for enhancing immunity containing compounds represented by chemical formulas 1-8 or sophora flavescens extract as active ingredient” (Korea Research Institute of Bioscience and Biotechnology, priority 2010, dated 2016)

Columns and labels:
IFN-β = IFN-β expression in THP-1 cells, Real-time PCR; assay type: cell-based, human; conditions: 10 μM, 30 μM, and 60 μM for 6 hours
Method: After 6 hours of treatment, the cells were placed in tubes and pelleted down through centrifugation to remove cell media, which was then washed with PBS once and RNA was extracted from the washed cells by using RNeasy Mini Elute Cleanup kit. The concentration and purity of RNA extract was measured by using 2100 Bioanalyzer system (Agilent Technologies), and cDNA was synthesized from this RNA extract by using Taqman reverse transcription reagents kit (Applied Biosystems). The expression level of IFN-β was measured by running Real-time PCR using SYBR Green PCR master mix kit (Applied Biosystem).
Subsequently, in order to investigate the effect of compound of Formula 1 in expression of IFN-β which is induced by IRF3 activation, the compound of Formula 1 was added to the cell group at a concentration of 10 μM, 30 μM, and 60 μM for 6 hours and then the expression level of IFNβ was measured.

c-Fos = test: TLR-3 signal pathway western blot, nuclear extract: c-Fos; assay type: cell-based, human; conditions: THP-1 cells, 30 μM, 60 μM, and 100 μM 1 hour prior to 50 μg/ml poly (I:C) for 3 hours; concentration-dependent
Method: (§1) First, THP-1 cells were prepared at a density of 1.5×10^6 cells/well and cultured in culture medium RPMI 1640 which lacks FBS for 12 hours. Then, the cells were treated with the compound of Formula 1 at a concentration of 30 μM, 60 μM, and 100 μM 1 hour prior to the poly(I:C) treatment, and then treated with 50 μg/ml of poly (I:C) for 3 hours. After 3 hours of treatment, the cells were placed in a tube and pelleted down by centrifugation to remove cell media, washed with PBS once. Subsequently, the cells were added with NE-PER Nuclear extraction reagents (Thermo scientific) and cell lysis buffer to isolate nuclear extract and total protein extract which were then subject to western blot analysis. For the nuclear extract, the level of NFkB and c-Fos was monitored, and for the total protein extract, the level of MAPKs, IKK isoforms, and IRF3 was measured. […] Furthermore, the phosphorylation of MAPKs, i.e., ERK, JNK, and p-38 which act before AP-1 activation in the pathway was reduced by the compound of Formula 1 in a concentration-dependent manner (FIG. 9e).

IKK = test: TLR-3 signal pathway western blot, total protein: IKK phosphorylation; assay type: cell-based, human; conditions: THP-1 cells, 30 μM, 60 μM, and 100 μM 1 hour prior to 50 μg/ml poly (I:C) for 3 hours; concentration-dependent
Method: as §1

p-38 = test: TLR-3 signal pathway western blot, total protein: p-38 phosphorylation; assay type: cell-based, human; conditions: THP-1 cells, 30 μM, 60 μM, and 100 μM 1 hour prior to 50 μg/ml poly (I:C) for 3 hours; concentration-dependent
Method: as §1

[1] = system: rotavirus KJ56-1 (bovine rotavirus, G8P[7]); test: Proliferation of rotavirus KJ56-1 in TF-104 cells; assay type: cell-based; conditions: MOI 0.01, 30 μM, 3 days
Method: In order to investigate the inhibitory effects of the above-disclosed compounds represented by Formulas 1 to 8 against proliferation of rotavirus, the following experiment was conducted using the fetal rhesus monkey kidney cell line TF-104. First, TF-104 cells (1×10^5 cells/well) were treated with rotavirus KJ56-1 (bovine rotavirus, […][7]) with multiplicity of infection (MOI) of 0.01 for 1 hour. Then the supernatant was removed from the cell pellet, and the pelleted cells were added to EMEM medium mixed with 1 μg/ml of trypsin and compounds of Formulas 1 to 8 and cultured at 37° C. for 3 days.

rotavirus 205-1 = test: Proliferation of rotavirus 205-1 in TF-104 cells; assay type: cell-based, porcine rotavirus; conditions: 30 μM
ERK = test: TLR-3 signal pathway western blot, total protein: ERK phosphorylation; assay type: cell-based, human; conditions: THP-1 cells, 30 μM, 60 μM, and 100 μM 1 hour prior to 50 μg/ml poly (I:C) for 3 hours; concentration-dependent
Method: as §1

IkB = test: TLR-3 signal pathway western blot, total protein: IkB phosphorylation; assay type: cell-based, human; conditions: THP-1 cells, 30 μM, 60 μM, and 100 μM 1 hour prior to 50 μg/ml poly (I:C) for 3 hours; concentration-dependent
Method: as §1

NFkB p65 = test: TLR-3 signal pathway western blot, nuclear extract: NFkB p65; assay type: cell-based, human; conditions: THP-1 cells, 30 μM, 60 μM, and 100 μM 1 hour prior to 50 μg/ml poly (I:C) for 3 hours; concentration-dependent
Method: as §1

TRIF-CFP = test: Distribution of TRIF-CFP in transfected THP-1 cells treated with poly (I:C), confocal microscope; assay type: cell-based, human; conditions: THP-1 cells transfected with pcDNA3-TRIF-CFP, 30 μM, then 50 μg/ml poly (I:C) for 1 hour
Method: In order to monitor the changes in distribution of TRIF-CFP in vivo by the compound of Formula 1, THP-1 cells (1×10^6 cells/well) were transfected with 0.5 μg of pcDNA3-TRIF-CFP plasmid by using Nucleofector kit V (Lonza, Switzerland) and cultured at 37° C. for 2 days. Then, the transfected cells were placed in 8-chamber slide coated with Poly-L-Lysine and treated with the compound of Formula 1 at 30 μM, and treated with 50 μg/ml of poly (I:C) for 1 hour. After removing the supernatant, the cells were washed with PBS three times, and fixed onto the slide by applying 200 μl of 4% paraformaldehyde and slowfade gold antifade reagent. Then the changes in the distribution of TRIF-CFP were monitored under carl zeins LSM 510 META confocal microscope.

IRF3 [2] = test: IRF3 activation in THP-1 cells treated with poly (I:C), western blot; assay type: cell-based, human; conditions: 30 μM and 60 μM for 1 hour, then 50 μg/ml poly (I:C) for 3 hours, compared to poly (I:C) only
Method: First, in order to investigate the effect of the extract in IRF3 activation, THP-1 cells were prepared at a density of 1.5×10^6 cells/well, and treated with the compound of Formula 1 at a concentration of 30 μM and 60 μM for 1 hour and then treated with 50 μg/ml of poly (I:C) for 3 hours. After 3 hours of treatment, the cells were placed in a tube and pelleted down through centrifugation to remove cell media, which was then washed with PBS once and mixed with NE-PER Nuclear extraction reagent (Thermo scientific) and cell lysis buffer to isolate nuclear extract and total protein extract. The isolated extracts were subject to western blot analysis.

JNK = test: TLR-3 signal pathway western blot, total protein: JNK phosphorylation; assay type: cell-based, human; conditions: THP-1 cells, 30 μM, 60 μM, and 100 μM 1 hour prior to 50 μg/ml poly (I:C) for 3 hours; concentration-dependent
Method: as §1

IRF3 [3] = test: IRF3 activity/phosphorylation in THP-1 cells, western blot; assay type: cell-based, human; conditions: treated with the compound only
Method: First, in order to investigate the effects of the extract in activation of IRF3, THP-1 cells were prepared at a density of 1.5×10^6 cells/well and treated with 30 μg/ml of S. flavescens extract, 60 μg/ml of water fraction thereof, or 30 μg/ml of chloroform fraction thereof for 2 hours. After 2 hours of treatment with the extract and fractions thereof, the cells were put into tubes and pelleted down through centrifugation to remove culture media. Then the cell pellet was washed with PBS once and treated with cell lysis buffer to isolate total protein extracts, which were then subjected to western blot analysis. In this analysis, IRF3 protein level was measured.

Structure (SMILES): C=C(C)C(CCC(C)(C)O)Cc1c(O)cc(O)c2c1OC(c1ccc(O)cc1O)CC2=O (stereo not shown) [Formula 1, 5,7,2′,4′-trihydroxy-8-(5-hydroxy-2-isoprenyl-5-methyl-hexyl-)flavanone]
- IFN-β expression (IFN-β): concentration-dependent increase
- transport of c-Fos to nucleus (c-Fos): reduced
- phosphorylation of IKK (IKK): reduced
- phosphorylation of p-38 (p-38): reduced
- proliferation of rotavirus KJ56-1 [1]: significantly inhibited
- proliferation of rotavirus 205-1 (rotavirus 205-1): significantly inhibited
- phosphorylation of ERK (ERK): reduced
- phosphorylation of IkB (IkB): reduced
- transport of NFkB p65 to nucleus (NFkB p65): reduced
- distribution of TRIF-CFP (TRIF-CFP): even distribution of TRIF-CFP in the cytoplasm
- IRF3 activation (IRF3 [2]): higher level of IRF3 activation
- phosphorylation of JNK (JNK): reduced
- IRF3 activity (IRF3 [3]): concentration-dependent increased
